Assay results published in patent publication US8946166B2, “Peptide-based compounds and compositions which inhibit muscle contraction” (Lipotec, S.A., priority 2009, dated 2015).

Tested on: AChR clusters
Experiment: AChR clustering inhibition trial (agrin-induced AChR clusters in myotubes, α-bungarotoxin-tetramethylrhodamine staining, confocal quantification)
Assay type: cell-based
Conditions: mouse myotubes, normalized to basal values of the medium

Q: “H-L-Glu-L-Asp-L-Arg-L-Phe-L-Arg-L-Met-NH2” was tested. Which “Percentage of AChR cluster inhibition” value (peptide 10 μM) did it give?
A: 25.6%

Q: For “Ac-L-Asp-L-Asp-L-Tyr-L-Tyr-L-Lys-L-Met-NH2”, which “Percentage of AChR cluster inhibition” value (peptide 10 μM) is on record?
A: 21.5%

Q: For “Ac-L-Glu-L-Asp-L-Tyr-L-Phe-L-Arg-L-Leu-NH2”, which “Percentage of AChR cluster inhibition” value (peptide 10 μM) is on record?
A: 30.8%

Q: Which “Percentage of AChR cluster inhibition” value (peptide 10 μM) does the source give for “Ac-L-Pro-L-Asp-L-Tyr-L-Tyr-L-Arg-L-Met-NH2” here?
A: 61.1%

Q: “Ac-L-Asp-L-Asp-L-Tyr-L-Phe-L-Arg-L-Leu-NH2” was tested. Which “Percentage of AChR cluster inhibition” value (peptide 10 μM) did it give?
A: 33.8%

Q: For “Ac-L-Pro-L-Asp-L-Tyr-L-Phe-L-Arg-L-Leu-NH—(CH2)15—CH3”, which “Percentage of AChR cluster inhibition” value (peptide 100 μM) is on record?
A: 27.8%

Q: “Palm-L-Glu-L-Asp-L-Tyr-L-Tyr-L-Arg-L-Leu-NH2” was tested. Which “Percentage of AChR cluster inhibition” value (peptide 10 μM) did it give?
A: 34.8%

Q: For “Ac-L-Glu-L-Asp-L-Arg-L-Phe-L-Arg-L-Leu-NH2”, which “Percentage of AChR cluster inhibition” value (peptide 10 μM) is on record?
A: 20.8%

Q: For “Ac-L-Pro-L-Asp-L-Arg-L-Tyr-L-Lys-L-Leu-NH2”, which “Percentage of AChR cluster inhibition” value (peptide 100 μM) is on record?
A: 43.6%

Q: With “Palm-L-Glu-L-Asp-L-Tyr-L-Tyr-L-Arg-L-Met-NH2” as the substance, how does the “Percentage of AChR cluster inhibition” value (peptide 100 μM) read?
A: 68.5%

Q: Which “Percentage of AChR cluster inhibition” value (peptide 10 μM) does the source give for “Ac-L-Glu-L-Asp-L-Arg-L-Phe-L-Lys-L-Leu-NH2” here?
A: 23.7%

Q: How did the “Percentage of AChR cluster inhibition” value (peptide 100 μM) turn out when “Ac-L-Pro-L-Asp-L-Arg-L-Tyr-L-Arg-L-Leu-NH2” was run?
A: 40.2%

Q: Which “Percentage of AChR cluster inhibition” value (peptide 10 μM) does the source give for “Ac-L-Asp-L-Asp-L-Tyr-L-Tyr-L-Arg-L-Met-NH2” here?
A: 31.3%

Q: For “Ac-L-Pro-L-Asp-L-Tyr-L-Tyr-L-Lys-L-Met-NH2”, which “Percentage of AChR cluster inhibition” value (peptide 10 μM) is on record?
A: 40.7%

Q: For “Ac-L-Glu-L-Asp-L-Arg-L-Tyr-L-Arg-L-Leu-NH2”, which “Percentage of AChR cluster inhibition” value (peptide 100 μM) is on record?
A: 24.5%

Q: With “Ac-L-Glu-L-Asp-L-Tyr-L-Phe-L-Arg-L-Leu-OH” as the substance, how does the “Percentage of AChR cluster inhibition” value (peptide 100 μM) read?
A: 33.8%

Q: With “Palm-L-Pro-L-Asp-L-Tyr-L-Tyr-L-Lys-L-Leu-NH2” as the substance, how does the “Percentage of AChR cluster inhibition” value (peptide 10 μM) read?
A: 33.7%

Q: For “Ac-L-Pro-L-Asp-L-Tyr-L-Tyr-L-Arg-L-Leu-NH2”, which “Percentage of AChR cluster inhibition” value (peptide 10 μM) is on record?
A: 51.9%

Q: “Ac-L-Pro-L-Asp-L-Tyr-L-Tyr-L-Lys-L-Leu-NH2” was tested. Which “Percentage of AChR cluster inhibition” value (peptide 100 μM) did it give?
A: 36.7%

Q: How did the “Percentage of AChR cluster inhibition” value (peptide 100 μM) turn out when “Ac-L-Glu-L-Asp-L-Arg-L-Phe-L-Arg-L-Met-OH” was run?
A: 39.1%

Q: Which “Percentage of AChR cluster inhibition” value (peptide 100 μM) does the source give for “Ac-L-Glu-L-Asp-L-Arg-L-Phe-L-Arg-L-Met-NH2” here?
A: 55.1%

Q: For “Ac-L-Glu-L-Asp-L-Tyr-L-Tyr-L-Arg-L-Leu-NH2”, which “Percentage of AChR cluster inhibition” value (peptide 10 μM) is on record?
A: 57.1%

Q: With “Ac-L-Pro-L-Asp-L-Arg-L-Phe-L-Lys-L-Leu-NH2” as the substance, how does the “Percentage of AChR cluster inhibition” value (peptide 10 μM) read?
A: 46.1%

Q: How did the “Percentage of AChR cluster inhibition” value (peptide 10 μM) turn out when “Ac-L-Pro-L-Asp-L-Tyr-L-Phe-L-Lys-L-Leu-NH2” was run?
A: 27.8%
